± gives the expanded uncertainty stated by the source.

The data set can be described thus: molar enthalpy of vaporization or sublimation. The following applies: Crystal, Static calorimetry.

Regarding `O=C(O)c1ccc(C(=O)O)nc1` [2,5-pyridinedicarboxylic acid], where the note is “492 K”, the molar enthalpy was 46.5 ± 1.29 kcal/mol. As for `COC(=O)c1cccc(C(=O)OC)n1` [2,6-pyridinedicarboxylic acid, dimethyl ester], the molar enthalpy (385 K) stood at 31.1 ± 1.82 kcal/mol. As to `O=C(O)c1cccc(C(=O)O)n1` [pyridine-2,6-dicarboxylic acid], the molar enthalpy (494 K) came out at 40.2 ± 2.63 kcal/mol.

(Values after the NIST ThermoML archive (doi:10.1021/je049586l).)
